Reference: US7361676B2, “Solid preparation containing single crystal form” (Teijin Limited, priority 2002, dated 2008)

Legend:
xanthine oxidase = xanthine oxidase (Homo sapiens, UniProt P47989); conditions: as described in WO92/09279; cited from earlier work
[1] = as described in WO99/65885; cited from earlier work
[2] = Intrinsic dissolution rate (USP 24 <1087>); format: physicochemical; conditions: pellets, second fluid of the disintegration test of Japanese Pharmacopoeia, 50 rpm
Experimental: The dissolution rate was measured according to USP 24, <1087>Intrinsic Dissolution. Specifically, the measurement was carried out as follows:
50 mg each of crystals powdered lightly in an agate mortar was set between plates, and a pressure of 754 kgf/cm^2 was applied thereto for one minute to produce pellets. As the testing solution, 900 mL of the second fluid of the disintegration test of Japanese Pharmacopoeia was used and the test was carried out at 50 rpm using the dissolution apparatus produced by Vankel. Subsequently, the testing liquid was filtered through a filter and the resultant, used as the sample solution, was tested with respect to a standard solution by a spectrophotometry (wavelength of 317 nm). The results are shown in Table 2, in which the order of the dissolution rate of the six crystals is as follows: E>A>B>D>G>C.

[3] = Physical stability of drug substance crystals at 40° C./75% RH (HPLC degradant, XRD/TG transformation); format: physicochemical; conditions: for Transformation of crystal form on storage: 40° C./75% RH, storage for three months
Experimental: Each of the drug substances (crystals A, B, C, D, E and G) of 2-(3-cyano-4-isobutyloxyphenyl)-4-methyl-5-thiazolecarboxylic acid was tested in bottles with and without closure under the conditions of 40° C./75% RH. Any degradant was detected by a HPLC. Their transformation was detected by an X-ray powder diffraction pattern and by a thermal mass measurement method, and the 50% transform time was determined. There was no degradant for all of the six crystal forms.
For the above HPLC, Model 2690 produced by Waters was adopted, using an ODS column with a measured wave length of 217 nm at a predetermined temperature around 40° C.
For the above X-ray powder diffraction, Model XRD-6000 of Shimadzu Corp. was used.
For the above heat mass measurement, Model TGA7, Pyris1 produced by Perkin Elmer was used at a temperature rising speed of 40° C./min.

[4] = Pulverized particle size by image analysis; format: physicochemical
Experimental: Plain tablets were prepared by the method same as that of Example 1 except that particles (Particles 1˜4) shown in Table 7, with crystal A and with four different kinds of average particle sizes, were used as 2-(3-cyano-4-isobutyloxyphenyl)-4-methyl-5-thiazolecarboxylic acid. The obtained plain tablets were coated with coating liquid comprising purified water, polyethylene glycol and hydroxypropylmethyl cellulose by a coating machine (High Coater HCT-30, Freund Ind.).

[5] = 40° C./75% RH with closure, analysis XRD or TG
[6] = 40° C./75% RH without closure, analysis XRD or TG

xanthine oxidase, sequence (P47989 whole entry, species assumed): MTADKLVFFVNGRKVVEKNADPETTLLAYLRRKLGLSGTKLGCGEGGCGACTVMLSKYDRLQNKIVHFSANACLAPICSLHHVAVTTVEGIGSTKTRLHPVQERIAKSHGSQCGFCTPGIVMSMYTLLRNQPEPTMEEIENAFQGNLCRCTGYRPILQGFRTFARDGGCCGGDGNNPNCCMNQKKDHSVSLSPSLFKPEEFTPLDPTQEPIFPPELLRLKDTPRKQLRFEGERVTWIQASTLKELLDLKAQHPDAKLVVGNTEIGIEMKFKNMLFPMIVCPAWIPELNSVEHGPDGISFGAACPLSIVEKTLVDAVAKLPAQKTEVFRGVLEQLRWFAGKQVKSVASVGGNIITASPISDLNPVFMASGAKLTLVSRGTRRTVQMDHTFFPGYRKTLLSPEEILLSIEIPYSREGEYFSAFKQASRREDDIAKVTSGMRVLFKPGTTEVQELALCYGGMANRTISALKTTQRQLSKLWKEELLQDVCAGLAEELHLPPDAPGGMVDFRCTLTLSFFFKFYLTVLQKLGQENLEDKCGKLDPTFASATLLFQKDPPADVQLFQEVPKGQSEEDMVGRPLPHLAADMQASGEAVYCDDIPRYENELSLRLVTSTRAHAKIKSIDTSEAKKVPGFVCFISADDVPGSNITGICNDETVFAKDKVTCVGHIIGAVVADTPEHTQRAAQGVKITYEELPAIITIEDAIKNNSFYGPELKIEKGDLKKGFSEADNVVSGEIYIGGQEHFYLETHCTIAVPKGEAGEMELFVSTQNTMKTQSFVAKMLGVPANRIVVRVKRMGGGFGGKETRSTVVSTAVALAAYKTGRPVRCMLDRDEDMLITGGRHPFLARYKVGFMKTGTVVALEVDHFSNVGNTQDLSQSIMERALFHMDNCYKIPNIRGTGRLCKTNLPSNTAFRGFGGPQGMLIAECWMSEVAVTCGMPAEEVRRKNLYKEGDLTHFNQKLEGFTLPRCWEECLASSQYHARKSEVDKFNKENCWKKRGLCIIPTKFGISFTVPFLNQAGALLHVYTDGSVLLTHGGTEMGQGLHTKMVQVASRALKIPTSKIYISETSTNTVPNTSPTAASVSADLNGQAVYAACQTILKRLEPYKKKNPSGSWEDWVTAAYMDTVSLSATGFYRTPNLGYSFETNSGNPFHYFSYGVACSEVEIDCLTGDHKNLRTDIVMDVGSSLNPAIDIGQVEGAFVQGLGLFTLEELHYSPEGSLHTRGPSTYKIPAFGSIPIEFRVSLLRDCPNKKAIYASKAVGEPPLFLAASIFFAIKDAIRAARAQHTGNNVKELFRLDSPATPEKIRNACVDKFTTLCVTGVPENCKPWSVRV

Intrinsic rate [2] [mg/cm^2/min] | 50% Transform time [3, 5] | 50% Transform time [3, 6] | 50% Transform time ([3]; 40° C./75% RH without closure, analysis XRD) [days] | Pulverized particle size, 95% cumulative diameter [4] [μm] | Pulverized particle size, average particle diameter [4] [μm] | SMILES | Activity for inhibiting xanthine oxidase (xanthine oxidase) | Retention of a crystal form in long term storage [1] | Transformation of crystal form on storage [3]
 |  |  |  |  |  | Cc1nc(-c2ccc(OCC(C)C)c(C#N)c2)sc1C(=O)O [2-(3-cyano-4-isobutyloxyphenyl)-4-methyl-5-thiazolecarboxylic acid] | strong activity |  | 
0.1434 | (Not changed) | (Not changed) |  |  |  | Cc1nc(-c2ccc(OCC(C)C)c(C#N)c2)sc1C(=O)O [Crystal A, 2-(3-cyano-4-isobutyloxyphenyl)-4-methyl-5-thiazolecarboxylic acid] |  | useful in view of retention of a crystal form in long term storage | stable
0.1242 | 5 days | 0.583 days |  |  |  | Cc1nc(-c2ccc(OCC(C)C)c(C#N)c2)sc1C(=O)O [Crystal B, 2-(3-cyano-4-isobutyloxyphenyl)-4-methyl-5-thiazolecarboxylic acid] |  |  | transformation of crystals B, D and E was detected
0.0694 | (Not changed) | (Not changed) |  |  |  | Cc1nc(-c2ccc(OCC(C)C)c(C#N)c2)sc1C(=O)O [Crystal C, 2-(3-cyano-4-isobutyloxyphenyl)-4-methyl-5-thiazolecarboxylic acid] |  | useful in view of retention of a crystal form in long term storage | stable
0.1092 | 17 days | 0.0104 days |  |  |  | Cc1nc(-c2ccc(OCC(C)C)c(C#N)c2)sc1C(=O)O [Crystal D, 2-(3-cyano-4-isobutyloxyphenyl)-4-methyl-5-thiazolecarboxylic acid] |  |  | transformation of crystals B, D and E was detected
0.1874 | 55 days |  | 19 |  |  | Cc1nc(-c2ccc(OCC(C)C)c(C#N)c2)sc1C(=O)O [Crystal E, 2-(3-cyano-4-isobutyloxyphenyl)-4-methyl-5-thiazolecarboxylic acid] |  |  | transformation of crystals B, D and E was detected
0.0967 | (Not changed) | (Not changed) |  |  |  | Cc1nc(-c2ccc(OCC(C)C)c(C#N)c2)sc1C(=O)O [Crystal G, 2-(3-cyano-4-isobutyloxyphenyl)-4-methyl-5-thiazolecarboxylic acid] |  | useful in view of retention of a crystal form in long term storage | stable
 |  |  |  | 5.6 | 3.5 | Cc1nc(-c2ccc(OCC(C)C)c(C#N)c2)sc1C(=O)O [Particle 1, 2-(3-cyano-4-isobutyloxyphenyl)-4-methyl-5-thiazolecarboxylic acid] |  |  | 
 |  |  |  | 29.5 | 12.9 | Cc1nc(-c2ccc(OCC(C)C)c(C#N)c2)sc1C(=O)O [Particle 2, 2-(3-cyano-4-isobutyloxyphenyl)-4-methyl-5-thiazolecarboxylic acid] |  |  | 
 |  |  |  | 74.7 | 26.2 | Cc1nc(-c2ccc(OCC(C)C)c(C#N)c2)sc1C(=O)O [Particle 3, 2-(3-cyano-4-isobutyloxyphenyl)-4-methyl-5-thiazolecarboxylic acid] |  |  | 
 |  |  |  | 140.8 | 48.6 | Cc1nc(-c2ccc(OCC(C)C)c(C#N)c2)sc1C(=O)O [Particle 4, 2-(3-cyano-4-isobutyloxyphenyl)-4-methyl-5-thiazolecarboxylic acid] |  |  | 
